From PubChem BioAssay AID256 (DTP/NCI, 2004)
Values joined by “and” are separate entries in the source; they are usually repeats but may differ in a detail not shown here. Equal entries are not always repeated. Inconclusive results and toxic doses are left out. Rule for the calls: active = survival T/C of 150% or more; inactive = T/C below 125% in these data.

Tested on: CD2F1 mice, L1210 leukemia ip, survival T/C
Test: NCI In Vivo Anticancer Drug Screen. Data for tumor model L1210 Leukemia (intraperitoneal) in CD2F1 (CDF1) mice
Settings: higher = longer survival
Procedure, shortened: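 Vehicle-treated tumor-bearing mice served as controls (C) for compound-treated mice (T). Reported figure is T divided by C.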

[1] = endpoint: mean survival time, dose: 50.0 mg/kg/injection, schedule: Q01DX009 (ip), vehicle: saline with Tween-80
[2] = endpoint: mean survival time, dose: 100.0 mg/kg/injection, schedule: Q01DX009 (ip), vehicle: saline with Tween-80
[3] = endpoint: mean survival time, dose: 200.0 mg/kg/injection, schedule: Q01DX009 (ip), vehicle: saline with Tween-80
[4] = endpoint: mean survival time, dose: 100.0 mg/kg/injection, schedule: Q04DX003 (ip), vehicle: saline with Tween-80
[5] = endpoint: mean survival time, dose: 200.0 mg/kg/injection, schedule: Q04DX003 (ip), vehicle: saline with Tween-80
[6] = endpoint: mean survival time, dose: 400.0 mg/kg/injection, schedule: Q04DX003 (ip), vehicle: saline with Tween-80

Measured: T/C

O=c1c2cccc3c2-c2c4c(cccc14)c(O)c1cccc(c3=O)c21
inactive: endpoint: mean survival time, dose: 100.0 mg/kg/injection, schedule: Q04DX003 (ip), vehicle: saline sonified 94 % of control | endpoint: mean survival time, dose: 200.0 mg/kg/injection, schedule: Q04DX003 (ip), vehicle: saline sonified 95 % of control | endpoint: mean survival time, dose: 400.0 mg/kg/injection, schedule: Q04DX003 (ip), vehicle: saline sonified 92 % of control

Cc1cc(CSc2ssc(=S)c2-c2ccccc2)c(CSc2ssc(=S)c2-c2ccccc2)cc1C
inactive: endpoint: mean survival time, dose: 100.0 mg/kg/injection, schedule: Q01DX001 (ip), vehicle: saline with Tween-80 98 % of control | endpoint: mean survival time, dose: 200.0 mg/kg/injection, schedule: Q01DX001 (ip), vehicle: saline with Tween-80 98 % of control | endpoint: mean survival time, dose: 400.0 mg/kg/injection, schedule: Q01DX001 (ip), vehicle: saline with Tween-80 97 % of control

C/C(=N\NC(N)=O)c1cccc(/C(C)=N/NC(N)=O)n1
inactive: endpoint: mean survival time, dose: 6.25 mg/kg/injection, schedule: Q01DX009 (ip), vehicle: saline with Tween-80 102 % of control and 103 % of control | endpoint: mean survival time, dose: 12.5 mg/kg/injection, schedule: Q01DX009 (ip), vehicle: saline with Tween-80 103 % of control and 104 % of control | endpoint: mean survival time, dose: 25.0 mg/kg/injection, schedule: Q01DX009 (ip), vehicle: saline with Tween-80 100 % of control and 101 % of control | [1] 98 % of control and 103 % of control | [2] 92 % of control and 102 % of control | [3] 91 % of control and 110 % of control

O=C(N/N=C/c1ccccc1)c1ccc(Cl)cc1
inactive: endpoint: mean survival time, dose: 100.0 mg/kg/injection, schedule: Q01DX009 (ip), vehicle: Klucel (hydroxypropylcellulose) (HPC) 94 % of control | endpoint: mean survival time, dose: 200.0 mg/kg/injection, schedule: Q01DX009 (ip), vehicle: Klucel (hydroxypropylcellulose) (HPC) 97 % of control | endpoint: mean survival time, dose: 400.0 mg/kg/injection, schedule: Q01DX009 (ip), vehicle: Klucel (hydroxypropylcellulose) (HPC) 101 % of control

Cc1cc(=O)cc(C(=O)O)o1
inactive: endpoint: mean survival time, dose: 50.0 mg/kg/injection, schedule: Q01DX009 (ip), vehicle: other 107 % of control | endpoint: mean survival time, dose: 100.0 mg/kg/injection, schedule: Q01DX009 (ip), vehicle: other 95 % of control | endpoint: mean survival time, dose: 200.0 mg/kg/injection, schedule: Q01DX009 (ip), vehicle: other 93 % of control

c1ccc(C2CC([P+](c3ccccc3)(c3ccccc3)c3ccccc3)=NN2)cc1 (stereo unspecified)
inactive: endpoint: mean survival time, dose: 2.7 mg/kg/injection, schedule: Q01DX009 (ip), vehicle: Klucel (hydroxypropylcellulose) (HPC) 110 % of control | endpoint: mean survival time, dose: 4.1 mg/kg/injection, schedule: Q01DX009 (ip), vehicle: Klucel (hydroxypropylcellulose) (HPC) 112 % of control | endpoint: mean survival time, dose: 5.5 mg/kg/injection, schedule: Q04DX003 (ip), vehicle: Klucel (hydroxypropylcellulose) (HPC) 106 % of control | endpoint: mean survival time, dose: 6.25 mg/kg/injection, schedule: Q01DX009 (ip), vehicle: Klucel (hydroxypropylcellulose) (HPC) 108 % of control | endpoint: mean survival time, dose: 8.2 mg/kg/injection, schedule: Q04DX003 (ip), vehicle: Klucel (hydroxypropylcellulose) (HPC) 106 % of control | endpoint: mean survival time, dose: 9.3 mg/kg/injection, schedule: Q01DX009 (ip), vehicle: Klucel (hydroxypropylcellulose) (HPC) 110 % of control | endpoint: mean survival time, dose: 11.0 mg/kg/injection, schedule: Q04DX002 (ip), vehicle: Klucel (hydroxypropylcellulose) (HPC) 102 % of control | endpoint: mean survival time, dose: 12.5 mg/kg/injection, schedule: Q04DX003 (ip), vehicle: Klucel (hydroxypropylcellulose) (HPC) 104 % of control | endpoint: mean survival time, dose: 14.0 mg/kg/injection, schedule: Q01DX009 (ip), vehicle: Klucel (hydroxypropylcellulose) (HPC) 102 % of control | endpoint: mean survival time, dose: 16.0 mg/kg/injection, schedule: Q04DX002 (ip), vehicle: Klucel (hydroxypropylcellulose) (HPC) 95 % of control | endpoint: mean survival time, dose: 18.0 mg/kg/injection, schedule: Q04DX003 (ip), vehicle: Klucel (hydroxypropylcellulose) (HPC) 108 % of control | endpoint: mean survival time, dose: 22.0 mg/kg/injection, schedule: Q01DX001 (ip), vehicle: Klucel (hydroxypropylcellulose) (HPC) 104 % of control | endpoint: mean survival time, dose: 25.0 mg/kg/injection, schedule: Q04DX002 (ip), vehicle: Klucel (hydroxypropylcellulose) (HPC) 102 % of control | endpoint: mean survival time, dose: 28.0 mg/kg/injection, schedule: Q04DX003 (ip), vehicle: Klucel (hydroxypropylcellulose) (HPC) 108 % of control | endpoint: mean survival time, dose: 35.0 mg/kg/injection, schedule: Q01DX001 (ip), vehicle: Klucel (hydroxypropylcellulose) (HPC) 110 % of control | endpoint: mean survival time, dose: 35.0 mg/kg/injection, schedule: Q04DX002 (ip), vehicle: Klucel (hydroxypropylcellulose) (HPC) 96 % of control | endpoint: mean survival time, dose: 55.0 mg/kg/injection, schedule: Q04DX002 (ip), vehicle: Klucel (hydroxypropylcellulose) (HPC) 104 % of control

Nc1nc(N)c(-c2ccc(Cl)c(Cl)c2)c(/C=C/C=C/c2cccnc2)n1
inactive: [1] 110 % of control | [2] 95 % of control

CCCCOC(=O)c1ccc(NC(=O)Nc2ccccc2OC)cc1
inactive: [2] 97 % of control | [4] 108 % of control | [3] 91 % of control | [5] 103 % of control | endpoint: mean survival time, dose: 400.0 mg/kg/injection, schedule: Q01DX009 (ip), vehicle: saline with Tween-80 92 % of control | [6] 88 % of control

O=C1c2ccccc2C(=O)c2c(O)c(Cc3cccnc3)cc(O)c21
inactive: endpoint: mean survival time, dose: 100.0 mg/kg/injection, schedule: Q01DX009 (ip), vehicle: saline sonified 98 % of control | endpoint: mean survival time, dose: 200.0 mg/kg/injection, schedule: Q01DX009 (ip), vehicle: saline sonified 98 % of control | endpoint: mean survival time, dose: 400.0 mg/kg/injection, schedule: Q01DX009 (ip), vehicle: saline sonified 102 % of control

CCN(CC)C(C)C(=O)Nc1c(C)cccc1Cl (stereo unspecified)
inactive: endpoint: mean survival time, dose: 25.0 mg/kg/injection, schedule: Q01DX009 (ip), vehicle: saline 92 % of control | endpoint: mean survival time, dose: 100.0 mg/kg/injection, schedule: Q01DX001 (ip), vehicle: saline 109 % of control

CCCCCC(/C=C/C1C=CC(=O)C1C/C=C/CCCC(=O)OC)OC(C)=O (stereo unspecified)
inactive: [4] 95 % of control | [5] 100 % of control | [6] 95 % of control

CC1(C)NC(=O)C2CC21C (stereo unspecified)
inactive: endpoint: mean survival time, dose: 25.0 mg/kg/injection, schedule: Q04DX002 (ip), vehicle: saline 96 % of control | endpoint: mean survival time, dose: 50.0 mg/kg/injection, schedule: Q04DX002 (ip), vehicle: saline 112 % of control | endpoint: mean survival time, dose: 100.0 mg/kg/injection, schedule: Q04DX002 (ip), vehicle: saline 93 % of control

CN(C)CCN1C(=O)c2cccc3cc([N+](=O)[O-])cc(c23)C1=O
inactive: endpoint: mean survival time, dose: 0.75 mg/kg/injection, schedule: Q01DX009 (ip), vehicle: saline with Tween-80 100 % of control and 106 % of control | endpoint: mean survival time, dose: 1.5 mg/kg/injection, schedule: Q01DX009 (ip), vehicle: saline with Tween-80 115 % of control and 107 % of control | endpoint: mean survival time, dose: 1.5 mg/kg/injection, schedule: Q01DX009 (ip), vehicle: saline 102 % of control | endpoint: mean survival time, dose: 3.0 mg/kg/injection, schedule: Q01DX009 (ip), vehicle: saline with Tween-80 113 % of control | endpoint: mean survival time, dose: 3.0 mg/kg/injection, schedule: Q01DX009 (ip), vehicle: saline 107 % of control | endpoint: mean survival time, dose: 6.0 mg/kg/injection, schedule: Q01DX009 (ip), vehicle: saline 109 % of control | endpoint: mean survival time, dose: 12.0 mg/kg/injection, schedule: Q01DX009 (ip), vehicle: saline with Tween-80 120 % of control | endpoint: mean survival time, dose: 12.0 mg/kg/injection, schedule: Q01DX009 (ip), vehicle: saline 117 % of control | endpoint: median survival time, dose: 0.37 mg/kg/injection, schedule: Q01DX009 (ip), vehicle: saline with Tween-80 100 % of control | endpoint: median survival time, dose: 0.75 mg/kg/injection, schedule: Q01DX009 (ip), vehicle: saline with Tween-80 95 % of control and 105 % of control | endpoint: median survival time, dose: 1.5 mg/kg/injection, schedule: Q01DX009 (ip), vehicle: saline with Tween-80 116 % of control and 98 % of control | endpoint: median survival time, dose: 3.0 mg/kg/injection, schedule: Q01DX009 (ip), vehicle: saline with Tween-80 104 % of control and 110 % of control | endpoint: median survival time, dose: 6.0 mg/kg/injection, schedule: Q01DX009 (ip), vehicle: saline with Tween-80 122 % of control | endpoint: median survival time, dose: 12.0 mg/kg/injection, schedule: Q01DX009 (ip), vehicle: saline with Tween-80 122 % of control

OCCCC(Sc1ccccc1)c1ccccc1 (stereo unspecified)
inactive: endpoint: mean survival time, dose: 75.0 mg/kg/injection, schedule: Q04DX003 (ip), vehicle: saline 91 % of control | endpoint: mean survival time, dose: 150.0 mg/kg/injection, schedule: Q04DX003 (ip), vehicle: saline 101 % of control | endpoint: mean survival time, dose: 300.0 mg/kg/injection, schedule: Q04DX003 (ip), vehicle: saline 91 % of control
